How the values were obtained:
[1] = Brain-to-blood transport (efflux); format: in vivo, ICR-CD-1 mice; settings: kout not significantly different from zero
Protocol: Briefly, 0.1 µmol of the lyophilized peptide was dissolved in 100 µL of phosphate buffer (pH 7.4, 25 mM). A Iodo-Gen coated tube (Thermo Scientific, Merelbeke, Belgium) was first of all rinsed with 1 mL of phosphate buffer. Subsequently, 50 µL of sodium iodide solution (1.1 µmol/mL) and 1 mCi of Na^125I solution (Perking Elmer, Zaventem, Belgium) were transferred into this Iodo-Gen coated tube. The oxidation reaction was allowed to proceed for six minutes at room temperature, after which the iodonium solution was transferred to 50 µL of peptide solution (1 mM). The iodination reaction of the peptide was allowed to proceed for another six minutes at room temperature. […]
We quantified the amount of peptide exported out of the brain as previously described. […] Then, the whole brain was collected, weighed and measured in a gamma counter for 5 min. Fifty µL of serum, which was obtained by centrifuging the collected blood at 10,000g during 15 min at 21 °C, and the background was also measured in a gamma counter. The efflux half-life was calculated from the linear regression of the natural logarithm of the residual radioactivity in brain versus time as follows:3 t1/2=ln(2)/kout where kout is defined as the efflux rate constant calculated as the negative value of the slope of the linear regression, applying first order kinetics.

BV-2 microglia cells [2] = test: IL-6 and TNFα determination (ELISA); format: cell-based, murine; settings: BV-2 cells, increasing concentrations, 20 h, ELISA of cell-free supernatant, n = 6
Protocol: BV-2 cells were a kind gift from Prof. Alba Minelli and were grown in RPMI medium supplemented with 10% fetal bovine serum (FBS) and 1% penicillin-streptromycin solution (Life Technologies, Belgium). The cells were cultured in culture flasks (Greiner, Belgium) in an incubator set at 37 °C and 5% CO2. When confluent, cells were detached using a cell scraper and diluted 1:20 approximately every 4 days. Experiments were performed in serum-free DMEM without phenol red.
To investigate the microglia activating properties of the peptide, IL-6 and TNFα levels were determined in cell-free supernatants of BV-2 microglia cells after treatment. BV-2 cells (2 × 10^5 cells/well) were seeded in 24-well plates and treated with peptide for 20 h. ELISA was performed according to the supplier’s protocol (eBioscience, Vienna, Austria). Briefly, after incubation with biotinylated detection antibody, avidin-HRP conjugate and subsequently chromogenic tetramethylbenzidine (TMB) substrate were added. Absorbance was measured at 450 nm and 570 nm using the Multiskan Ascent 354 microplate reader (Thermofisher, Waltham, USA). Concentrations were determined using the standard curve generated using known concentrations of TNFα and IL-6.

BV-2 microglia cells [3] = test: ROS assay (fluorometric intracellular ROS kit); format: cell-based, murine; settings: BV-2 cells, 24 h treatment, fluorescence, n = 12
Protocol: Microglia activation is accompanied by an increased reactive oxygen species (ROS) production. The ROS assay was performed using a fluorometric intracellular ROS kit according to the supplier’s protocol (Sigma-Aldrich, Diegem, Belgium). In brief, 4 × 10^4 cells/well were seeded in a black 96-well plate. Four hours post seeding, 100 µL of master reaction mix was added to the wells and incubated for 1 h after which cells were treated with PapRIV dissolved in PBS for 24 h. Fluorescence intensity was measured using an EnVision fluorometric plate reader at λex = 492/λem = 535 nm (Perkin Elmer, Zaventem, Belgium).

BV-2 cells = test: Morphological analysis (ameboid versus branched cells); format: cell-based, murine; settings: 20 h, n = 6
Protocol: We investigated the morphology since microglia change their morphology from a branched structure to a more round, ameboid structure after activation. BV-2 cells were seeded in 1 × 10^4 cells/well in a 24-well plate (360 µL); this way direct cell–cell contacts, which have an influence on morphology, are avoided. Four hours post-seeding, cells were treated with 40 µL peptide, placebo (H2O), medium or positive control (LPS 1 µg/mL). For the assessment of the morphology, one picture in the center of each well (100 × magnification) was taken after twenty hours with an Olympus CKX53 phase-contrast microscope equipped with an XC30 CCD camera (Olympus NV, Antwerp, Belgium). The number of branched and ameboid cells was counted with the cell counter plugin of ImageJ.

SH-SY5Y neuroblast cells = test: MTT assay on SH-SY5Y neuroblast cells; format: cell-based; settings: n = 6
Protocol: SH-SY5Y neuroblast cells (Sigma-Aldrich, Diegem, Belgium) were grown in F12:MEM (50/50 v/v) medium supplemented with 15% FBS, 1% non-essential amino acids (NEAA), 2 mM L-Glutamine and 1% penicillin/streptomycin solution (Life Technologies, Belgium) in an incubator set at 37 °C and 5% CO2. When confluent, cells were detached using 0.25% Trypsin–EDTA.
SH-SY5Y cells were seeded at a density of 5 × 10^4 cells/well in a 96-well plate and incubated for 24 h. Next, medium was removed and replaced by 200 µL conditioned medium of BV-2 cells which were treated for 20 h with PapRIV. After 24 h incubation, 20 µL MTT reagent (12 mM) was added and incubated for 3 h. Finally, the medium was removed and replaced by 150 µL DMSO and measured at 570 nm with a microplate reader (Thermofisher, Waltham, USA).

SDLPFEH [PapRIV, heptapeptide (SDLPFEH) quorum sensing peptide originating from the Bacillus cereus group; synthetic, purchased from GL Biochem]
efflux from brain back to the circulation [1]: no efflux | IL-6 production (BV-2 microglia cells [2]): induced | TNFα production (BV-2 microglia cells [2]): induced | intracellular ROS (BV-2 microglia cells [3]): increase | fraction of ameboid cells (BV-2 cells): increased | viability of SH-SY5Y cells with conditioned medium of treated BV-2 cells (SH-SY5Y neuroblast cells; BV-2 treated 20 h, conditioned medium on SH-SY5Y 24 h): significant decreased viability | toxicity of direct treatment of SH-SY5Y cells (SH-SY5Y neuroblast cells; direct peptide treatment): no significant toxic effects
